In the Kinase Knowledgebase extract (Sharma et al. 2016):

Target: PIK3CA (human) (UniProt P42336)
Assay: Inhibition of PIK3CA Kinase Activity

Sequence of PIK3CA (human) (P42336 whole entry, looked up): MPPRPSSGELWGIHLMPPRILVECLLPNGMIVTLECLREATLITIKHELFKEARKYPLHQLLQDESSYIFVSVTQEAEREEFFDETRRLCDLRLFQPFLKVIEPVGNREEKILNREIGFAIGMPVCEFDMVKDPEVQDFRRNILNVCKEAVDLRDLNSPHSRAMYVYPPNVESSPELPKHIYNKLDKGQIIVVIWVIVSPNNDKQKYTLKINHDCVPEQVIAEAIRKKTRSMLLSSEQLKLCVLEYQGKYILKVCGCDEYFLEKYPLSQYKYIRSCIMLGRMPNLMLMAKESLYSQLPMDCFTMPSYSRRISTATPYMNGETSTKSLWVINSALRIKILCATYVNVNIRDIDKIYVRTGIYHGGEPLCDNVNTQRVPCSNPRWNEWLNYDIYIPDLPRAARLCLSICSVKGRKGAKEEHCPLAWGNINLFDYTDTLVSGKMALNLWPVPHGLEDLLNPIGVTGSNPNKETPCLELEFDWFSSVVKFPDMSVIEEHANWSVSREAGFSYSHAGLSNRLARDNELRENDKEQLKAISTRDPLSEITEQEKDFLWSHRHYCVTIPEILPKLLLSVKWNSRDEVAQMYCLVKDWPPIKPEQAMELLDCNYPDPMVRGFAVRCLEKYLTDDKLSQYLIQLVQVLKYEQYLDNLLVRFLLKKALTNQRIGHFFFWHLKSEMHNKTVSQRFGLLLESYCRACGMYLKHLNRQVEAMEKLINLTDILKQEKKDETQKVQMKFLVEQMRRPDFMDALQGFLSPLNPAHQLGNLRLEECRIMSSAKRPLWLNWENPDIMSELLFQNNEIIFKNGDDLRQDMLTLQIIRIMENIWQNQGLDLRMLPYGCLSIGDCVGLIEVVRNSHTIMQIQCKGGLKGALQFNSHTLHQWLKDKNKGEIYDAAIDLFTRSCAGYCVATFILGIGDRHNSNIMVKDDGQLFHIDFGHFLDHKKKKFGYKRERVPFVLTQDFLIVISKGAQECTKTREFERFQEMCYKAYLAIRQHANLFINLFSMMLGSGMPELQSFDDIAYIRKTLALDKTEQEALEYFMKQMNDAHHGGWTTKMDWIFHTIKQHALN

SMILES | IC50 [nM]
CSc1nc2ccc(-c3ccc4c(c3)CN(c3ccnc5ccccc35)CCO4)cc2[nH]1 | 10 to 50
COc1ccc2c(N3CCOc4ccc(-c5ccc6nc[nH]c6c5)cc4C3)nc(C)nc2c1 | ≤ 10
CC1(C)CCc2ncnc(N3CCOc4ccc(-c5cnc(N)c(S(=O)(=O)N6CC7(CNC7)C6)c5)cc4C3)c2C1 | 10 to 50
CC1(C)CCc2ncnc(N3CCOc4ccc(-c5cnc(N)c(S(=O)(=O)N[C@H]6CC[C@H](N)CC6)c5)cc4C3)c2C1 | 10 to 50
Cc1nc2cc(-c3ccc4c(c3)CN(c3nc(C(C)N5CCCC5)nc5c3CC(C)(C)CC5)CCO4)cnc2[nH]1 (stereo not drawn) | 50 to 250
Cc1nc2cc(-c3ccc4c(c3)CN(c3nc(CN(C)C)nc(C)c3CC(C)C)CCO4)ccc2[nH]1 | 250 to 1000
Cc1nc2ccc(-c3ccc4c(c3)CN(c3nccc5ccccc35)CCO4)cc2[nH]1 | 50 to 250
COC(=O)Nc1nc2ccc(-c3ccc4c(c3)CN(c3ncnc(C)c3Cc3ccc(F)cc3)CCO4)cc2[nH]1 | ≤ 10
CC1(C)CCc2ncnc(N3CCOc4ccc(-c5cnc(N)c(S(=O)(=O)N6CC(O)C6)c5)cc4C3)c2C1 | ≤ 10
Cc1nc2ncc(-c3ccc4c(c3)CN(c3nc(CNCC(F)(F)F)nc5c3CC(C)(C)CC5)CCO4)cc2[nH]1 | 50 to 250
CC1(C)CCc2ncnc(N3CCOc4ccc(-c5cnc(O)c(S(=O)(=O)N6CC[C@H](N)C6)c5)cc4C3)c2C1 | 50 to 250
Cc1ncnc(N2CCOc3ccc(-c4cnc5nc(N)[nH]c5c4)cc3C2)c1Cc1ccc(F)cc1 | ≤ 10
Cc1nc(N)sc1-c1ccc2c(c1)CN(c1ncnc3c1CCC(C)(C)C3)CCO2 | 50 to 250
Cc1nc(CN(C)C)nc(N2CCOc3ccc(-c4ccc5scnc5c4)cc3C2)c1Cc1ccc(F)cc1 | 250 to 1000
Cc1nc2ccc(-c3ccc4c(c3)CN(c3ncnc5ccc(Br)cc35)CCO4)cc2[nH]1 | 50 to 250
CCNC(=O)c1ccc(-c2ccc3c(c2)CN(c2ccnc4ccccc24)CCO3)cc1 | 250 to 1000
Cc1nc2ccc(-c3ccc4c(c3)CN(c3ncnc5c(Br)cccc35)CCO4)cc2[nH]1 | 50 to 250
CN(C)Cc1nc2c(c(N3CCOc4ccc(-c5ccc6[nH]c(CF)nc6c5)cc4C3)n1)CC(C)(C)CC2 | ≤ 10
Cc1ccc2ncnc(N3CCOc4ccc(-c5cnc6nc(N)[nH]c6c5)cc4C3)c2c1 | ≤ 10
Cc1nc2ccc(-c3ccc4c(c3)CN(c3ncnc(C)c3C(C)c3ccccc3)CCO4)cc2[nH]1 (stereo not drawn) | 10 to 50
CCNc1nc2ccc(-c3ccc4c(c3)CN(c3ccncn3)CCO4)cc2[nH]1 | 250 to 1000
CCNc1nc2ccc(-c3ccc4c(c3)CN(c3ccnc5ccc(F)cc35)CCO4)cc2[nH]1 | 10 to 50

SMILES | IC50 [nM]
CCNc1nc2ccc(-c3ccc4c(c3)CN(c3ccnc5ccccc35)CCO4)cc2[nH]1 | ≤ 10
CC1(C)CCc2ncnc(N3CCOc4ccc(-c5cnc(N)c(S(=O)(=O)N6CCC(C)(N)C6)c5)cc4C3)c2C1 (stereo not drawn) | 10 to 50
Cc1ccc2ncnc(N3CCOc4ccc(-c5ccc6nc(C)[nH]c6c5)cc4C3)c2c1 | 10 to 50
CC1=CC(C)(C)Cc2c1ncnc2N1CCOc2ccc(-c3cnc(N)c(S(=O)(=O)N[C@@H]4CCN(C)C4)c3)cc2C1 | 50 to 250
CNCc1nc2ncc(-c3ccc4c(c3)CN(c3ncnc5c3CC(C)(C)CC5)CCO4)cc2[nH]1 | 50 to 250
COc1c(OCC2CC2)ccc2c(N3CCOc4ccc(-c5ccc6nc(C)[nH]c6c5)cc4C3)ncnc12 | 10 to 50
Cc1ncnc(N2CCOc3ccc(-c4cncs4)cc3C2)c1Cc1ccc(F)cc1 | 250 to 1000
COC(=O)Nc1nc2ncc(-c3ccc4c(c3)CN(c3ncnc(C)c3Cc3ccc(F)cc3)CCO4)cc2[nH]1 | ≤ 10
CC1(C)CCc2ncnc(N3CCOc4ccc(-c5cnc(N)c(S(=O)(=O)N6CC[C@H](N)C6)c5)cc4C3)c2C1 | 10 to 50
Cc1nc2ncc(-c3ccc4c(c3)CN(c3nc(CO)nc5c3CC(C)(C)CC5)CCO4)cc2[nH]1 | 10 to 50
CCNc1nc2ccc(-c3ccc4c(c3)CN(c3ccnc5cc(OC)c(OC)cc35)CCO4)cc2[nH]1 | 10 to 50
c1cc(N2CCOc3ccc(-c4ccc5nc[nH]c5c4)cc3C2)ncn1 | 250 to 1000
CCc1c(C)nc(CN(C)C)nc1N1CCOc2ccc(-c3ccc4[nH]c(C)nc4c3)cc2C1 | 10 to 50
Cc1nc2cc(-c3ccc4c(c3)CN(c3nc(CCN5CCCC5)nc5c3CC(C)(C)CC5)CCO4)cnc2[nH]1 | 10 to 50
Cc1nc2ccc(-c3ccc4c(c3)CN(c3ccnc5ccccc35)CCO4)cc2[nH]1 | 10 to 50
Cc1nc2c(F)c(-c3ccc4c(c3)CN(c3nc(CN(C)C)nc5c3CC(C)(C)CC5)CCO4)ccc2[nH]1 | 10 to 50
Nc1nc2ncc(-c3ccc4c(c3)CN(c3ncnc5ccc(F)cc35)CCO4)cc2[nH]1 | ≤ 10
CC1(C)CCc2ncnc(N3CCOc4ccc(-c5cnc(N)c(CS(C)(=O)=O)c5)cc4C3)c2C1 | 50 to 250
CCNc1nc2ccc(-c3ccc4c(c3)CN(c3ncnc(Nc5ccccc5)c3C)CCO4)cc2[nH]1 | 10 to 50
Cc1ncnc(N2CCOc3ccc(-c4cnc5nc(N)cn5c4)cc3C2)c1Cc1ccc(F)cc1 | 50 to 250
CC(C)(O)CC[S+]([O-])c1cc(-c2ccc3c(c2)CN(c2ncnc4c2CC(C)(C)CC4)CCO3)cnc1N (stereo not drawn) | 50 to 250
